Laboratory results as given in patent US20260317324A1, “BIFUNCTIONAL COMPOUNDS FOR DEGRADING BRAF VIA UBIQUITIN PROTEOSOME PATHWAY” (Nurix Therapeutics, Inc., priority 2023, published 2026).

Columns and labels:
Type in all cases: cell-based
BRAF G469A = molecular target: T1, BRAF G469A (Homo sapiens, UniProt P15056, G469A); assay: BRAF HiBiT degradation assay, C-terminal HiBiT-tagged BRAF G469A overexpressed in HCT-116 BRAF−/− cells (clone 34), Nano-Glo HiBiT Lytic assay
T1 construct: Horizon Discovery (HCT-116 BRAF−/− cells); host or cells: HCT-116 BRAF−/− cells, clone 34, lentiviral transduction
T1 sequence (P15056 whole entry G469A): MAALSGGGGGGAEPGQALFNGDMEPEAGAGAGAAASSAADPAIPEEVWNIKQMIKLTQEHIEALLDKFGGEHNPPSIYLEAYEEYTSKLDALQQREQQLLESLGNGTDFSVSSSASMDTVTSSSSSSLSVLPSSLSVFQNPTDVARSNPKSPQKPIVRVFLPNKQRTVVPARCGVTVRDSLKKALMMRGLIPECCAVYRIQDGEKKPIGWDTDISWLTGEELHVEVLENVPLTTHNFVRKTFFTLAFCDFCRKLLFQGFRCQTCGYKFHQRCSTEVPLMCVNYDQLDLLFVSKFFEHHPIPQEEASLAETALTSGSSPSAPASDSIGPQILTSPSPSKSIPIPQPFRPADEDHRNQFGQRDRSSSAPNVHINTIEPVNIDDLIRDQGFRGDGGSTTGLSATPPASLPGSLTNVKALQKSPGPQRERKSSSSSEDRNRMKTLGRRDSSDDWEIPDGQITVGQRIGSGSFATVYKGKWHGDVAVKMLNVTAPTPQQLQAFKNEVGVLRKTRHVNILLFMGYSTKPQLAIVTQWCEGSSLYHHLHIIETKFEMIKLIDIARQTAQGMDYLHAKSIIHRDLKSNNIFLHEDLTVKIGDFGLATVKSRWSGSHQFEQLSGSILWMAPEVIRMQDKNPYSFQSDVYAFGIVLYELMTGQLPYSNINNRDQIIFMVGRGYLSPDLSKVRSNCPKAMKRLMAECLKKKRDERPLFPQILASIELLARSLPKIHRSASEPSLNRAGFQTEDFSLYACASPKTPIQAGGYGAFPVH
Outline: (§1)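 Degradation was read by Nano-Glo HiBiT lytic luminescence, normalised to DMSO-treated tagged cells with wildtype HCT-116 as background. Test cells were lentiviral clones of HCT-116 BRAF−/− carrying HiBiT-tagged mutants in RPMI/10% FBS, given compound at 0.01 nM–1 μM in duplicate. Outputs are the curve-fitted concentration giving 50% degradation and the maximal observed degradation.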

BRAF V600E = molecular target: T2, BRAF V600E (Homo sapiens, UniProt P15056, V600E); assay: BRAF HiBiT degradation assay, C-terminal HiBiT-tagged BRAF V600E A375 cells (clone 1F10), Nano-Glo HiBiT Lytic assay; details: for Dmax: A-375
T2 construct: endogenous C-terminal HiBiT fusion tag on BRAF V600E allele; endogenous in cells; host or cells: A375 clone 1F10 (CRISPR-Cas9 knock-in of the HiBiT tag; parental A375 from ATCC)
T2 sequence (P15056 whole entry V600E, the tested form may be a part): as the sequence (P15056 whole entry G469A) above, with A469G, V600E counted along it
Outline: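 Luminescence from the Nano-Glo HiBiT lytic read-out gave % BRAF V600E remaining versus DMSO-treated tagged cells, with untagged A375 as background. Clone 1F10 cells (10,000/well, 24 h pre-culture) received compound at 1 μM–0.01 nM in half-log steps, 0.2% DMSO; curve fits gave DC50 at Y=50, plus observed Dmax.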

BRAF G466V = molecular target: T3, BRAF G466V (Homo sapiens, UniProt P15056, G466V); assay: BRAF HiBiT degradation assay, C-terminal HiBiT-tagged BRAF G466V overexpressed in HCT-116 BRAF−/− cells (clone 8), Nano-Glo HiBiT Lytic assay
T3 construct: Horizon Discovery (HCT-116 BRAF−/− cells); host or cells: HCT-116 BRAF−/− cells, clone 8, lentiviral transduction
T3 sequence (P15056 whole entry G466V): as the sequence (P15056 whole entry G469A) above, with G466V, A469G counted along it
Outline: as §1

BRAF D594G = molecular target: T4, BRAF D594G (Homo sapiens, UniProt P15056, D594G); assay: BRAF HiBiT degradation assay, C-terminal HiBiT-tagged BRAF D594G overexpressed in HCT-116 BRAF−/− cells (clone 63), Nano-Glo HiBiT Lytic assay
T4 construct: Horizon Discovery (HCT-116 BRAF−/− cells); host or cells: HCT-116 BRAF−/− cells, clone 63, lentiviral transduction
T4 sequence (P15056 whole entry D594G): as the sequence (P15056 whole entry G469A) above, with A469G, D594G counted along it
Outline: as §1

[1] = Class 2, BRAF G469A, DC50 at 50%: fitted conc. at Y=50
[2] = HCT-116, Class 2, BRAF G469A, percentage protein degraded at maximal compound effect relative to DMSO
[3] = A375 (BRAF V600E), DC50 at 50%: fitted conc. at Y=50
[4] = A375 (BRAF V600E), percentage protein degraded at maximal compound effect relative to DMSO
[5] = BRAF G466V, DC50 at 50%: fitted conc. at Y=50
[6] = HCT-116, BRAF G466V, percentage protein degraded at maximal compound effect relative to DMSO
[7] = BRAF D594G, DC50 at 50%: fitted conc. at Y=50
[8] = HCT-116, BRAF D594G, percentage protein degraded at maximal compound effect relative to DMSO
[9] = BRAF G469A (Class 2), HCT-116 BRAF−/− cells, DC50 at 50% degradation
[10] = BRAF G469A (Class 2), HCT-116 BRAF−/− cells, observed Dmax relative to DMSO control
[11] = A375 (BRAF V600E, Class 1), DC50 at 50% degradation
[12] = A375 (BRAF V600E, Class 1), observed Dmax, % protein degraded relative to DMSO control
[13] = BRAF G466V (Class 3), HCT-116 BRAF−/− cells, DC50 at 50% degradation
[14] = BRAF G466V (Class 3), HCT-116 BRAF−/− cells, observed Dmax relative to DMSO control
[15] = BRAF D594G (Class 3), HCT-116 BRAF−/− cells, DC50 at 50% degradation
[16] = BRAF D594G (Class 3), HCT-116 BRAF−/− cells, observed Dmax relative to DMSO control

SMILES | DC50 (BRAF G469A; [1]) | Dmax (BRAF G469A; [2]) | DC50 (BRAF V600E; [3]) | Dmax (BRAF V600E; [4]) | DC50 (BRAF G466V; [5]) | Dmax (BRAF G466V; [6]) | DC50 (BRAF D594G; [7]) | Dmax (BRAF D594G; [8]) | DC50 (BRAF G469A; [9]) | Dmax (BRAF G469A; [10]) | DC50 (BRAF V600E; [11]) | Dmax (BRAF V600E; [12]) | DC50 (BRAF G466V; [13]) | Dmax (BRAF G466V; [14]) | DC50 (BRAF D594G; [15]) | Dmax (BRAF D594G; [16])
CCCS(=O)(=O)Nc1cccc(-c2nc(C(C)(C)C)sc2-c2ccnc(NC3CC4(C3)CN(C(=O)CN3CCC5(CC3)CN(c3ccc6c(c3)C(=O)N(C3CCC(=O)NC3=O)C6=O)C5)C4)n2)c1F (racemic) [Compound 152, Rac-N-(3-{2-tert-butyl-5-[2-({2-[2-(2-{2-[(3R)-2,6-dioxopiperidin-3-yl]-1,3-dioxo-2,3-dihydro-1H-isoindol-5-yl}-2,7-diazaspiro[3.5]nonan-7-yl)acetyl]-2-azaspiro[3.3]heptan-6-yl}amino)pyrimidin-4-yl]-1,3-thiazol-4-yl}-2-fluorophenyl)propane-1-sulfonamide] | > 500 nM | < 30% | 10 to 50 nM | 30 to 70% | > 500 nM | < 30% | > 500 nM | 30 to 70% |  |  |  |  |  |  |  | 
CCCS(=O)(=O)Nc1cccc(-c2cn(-c3ccc(C4CCN(CC5CCN(c6ccc([C@@H]7CCC(=O)NC7=O)cc6)CC5)CC4)cc3)nc2-c2ccncc2)c1F [Compound 15, N-{3-[1-(4-{1-[(1-{4-[(3S)-2,6-dioxopiperidin-3-yl]phenyl}piperidin-4-yl)methyl]piperidin-4-yl}phenyl)-3-(pyridin-4-yl)-1H-pyrazol-4-yl]-2-fluorophenyl}propane-1-sulfonamide] | > 500 nM | < 30% | 10 to 50 nM | > 70% | 10 to 50 nM | 30 to 70% | > 500 nM | 30 to 70% |  |  |  |  |  |  |  | 
O=C1CC[C@H](c2ccc(N3CCC(CN4CCN(c5ccc(-n6cc(-c7cc(Cl)cc(NS(=O)(=O)N8CCCC8)c7F)c(-c7ccncc7)n6)cc5F)CC4)CC3)cc2)C(=O)N1 [Compound 364, N-{5-chloro-3-[1-(4-{4-[(1-{4-[(3R)-2,6-dioxopiperidin-3-yl]phenyl}piperidin-4-yl)methyl]piperazin-1-yl}-3-fluorophenyl)-3-(pyridin-4-yl)-1H-pyrazol-4-yl]-2-fluorophenyl}pyrrolidine-1-sulfonamide] |  |  |  |  |  |  |  |  | 10 to 50 nM | > 70% | 10 to 50 nM | > 70% | < 10 nM | > 70% | < 10 nM | > 70%
CCCS(=O)(=O)Nc1cccc(-c2nc(C(C)(C)C)sc2-c2ccnc(Nc3cccc(OC4CCN(C(=O)[C@H]5CC[C@H](Oc6ccc(C7CCC(=O)NC7=O)cn6)CC5)CC4)c3)n2)c1F (mixture of isomers) [Compound 97, N-{3-[2-tert-butyl-5-(2-{[3-({1-[(1r,4r)-4-({5-[(3RS)-2,6-dioxopiperidin-3-yl]pyridin-2-yl}oxy)cyclohexanecarbonyl]piperidin-4-yl}oxy)phenyl]amino}pyrimidin-4-yl)-1,3-thiazol-4-yl]-2-fluorophenyl}propane-1-sulfonamide] | > 500 nM | < 30% | 10 to 50 nM | > 70% | > 500 nM | 30 to 70% | > 500 nM | 30 to 70% |  |  |  |  |  |  |  | 
O=C1CCC(c2ccc(N3CCC(CN4CCN(c5ccc(-n6cc(-c7cc(F)cc(NS(=O)(=O)N8CCCC8)c7F)c(-c7ccncc7)n6)cc5)CC4)CC3)nc2)C(=O)N1 (racemic) [Compound 267, Rac-(R)—N-(3-(1-(4-(4-((1-(5-(2,6-dioxopiperidin-3-yl)pyridin-2-yl)piperidin-4-yl)methyl)piperazin-1-yl)phenyl)-3-(pyridin-4-yl)-1H-pyrazol-4-yl)-2,5-difluorophenyl)pyrrolidine-1-sulfonamide] |  |  |  |  |  |  |  |  | 10 to 50 nM | > 70% | < 10 nM | > 70% | < 10 nM | > 70% | < 10 nM | > 70%
CCCS(=O)(=O)Nc1cccc(-c2nc(C3CCN(C(=O)C4CCN(CC5CCN(c6ccc([C@H]7CCC(=O)NC7=O)cc6)CC5)CC4)CC3)sc2-c2ccnc(NC)n2)c1F [Compound 204, N-{3-[2-(1-{1-[(1-{4-[(3R)-2,6-dioxopiperidin-3-yl]phenyl}piperidin-4-yl)methyl]piperidine-4-carbonyl}piperidin-4-yl)-5-[2-(methylamino)pyrimidin-4-yl]-1,3-thiazol-4-yl]-2-fluorophenyl}propane-1-sulfonamide] | > 500 nM | 30 to 70% | < 10 nM | > 70% | > 500 nM | 30 to 70% | > 500 nM | 30 to 70% |  |  |  |  |  |  |  | 
CCCS(=O)(=O)Nc1cccc(-c2cn(-c3ccc(C4CCN(CC5CCN(c6ccc(C7CCC(=O)NC7=O)cc6F)CC5)CC4)cc3)nc2-c2ccncc2)c1F (racemic) [Compound 22, Rac-N-{3-[1-(4-{1-[(1-{4-[(3R)-2,6-dioxopiperidin-3-yl]-2-fluorophenyl}piperidin-4-yl)methyl]piperidin-4-yl}phenyl)-3-(pyridin-4-yl)-1H-pyrazol-4-yl]-2-fluorophenyl}propane-1-sulfonamide] | > 500 nM | < 30% | 10 to 50 nM | > 70% | 50 to 500 nM | 30 to 70% | > 500 nM | 30 to 70% |  |  |  |  |  |  |  | 
CCN(C)S(=O)(=O)Nc1cccc(-c2nc(C(C)(C)C)sc2-c2ccnc(Nc3ccc(N4CCN(CC5CCN(c6ccc([C@H]7CCC(=O)NC7=O)cc6)CC5)CC4)cn3)n2)c1F [Compound 128, (3R)-3-{4-[4-({4-[6-({4-[2-tert-butyl-4-(3-{[ethyl(methyl)sulfamoyl]amino}-2-fluorophenyl)-1,3-thiazol-5-yl]pyrimidin-2-yl}amino)pyridin-3-yl]piperazin-1-yl}methyl)piperidin-1-yl]phenyl}piperidine-2,6-dione] | > 500 nM | < 30% | 50 to 500 nM | > 70% | 50 to 500 nM | 30 to 70% | > 500 nM | 30 to 70% |  |  |  |  |  |  |  | 
CCCS(=O)(=O)Nc1cccc(-c2nc(-c3ccc(C4CCN(CC5CCN(c6ccc([C@@H]7CCC(=O)NC7=O)cc6)CC5)CC4)cc3)sc2-c2ccnc(N)n2)c1F [Compound 192, N-{3-[5-(2-aminopyrimidin-4-yl)-2-(4-{1-[(1-{4-[(3S)-2,6-dioxopiperidin-3-yl]phenyl}piperidin-4-yl)methyl]piperidin-4-yl}phenyl)-1,3-thiazol-4-yl]-2-fluorophenyl}propane-1-sulfonamide] | > 500 nM | < 30% | 10 to 50 nM | > 70% | > 500 nM | 30 to 70% | > 500 nM | 30 to 70% |  |  |  |  |  |  |  | 
O=C1CCN(c2ccc(N3CCC(CN4CCN(c5ccc(-n6cc(-c7cc(Cl)cc(NS(=O)(=O)N8CCCC8)c7F)c(-c7ccncc7)n6)nc5)CC4)CC3)cc2)C(=O)N1 [Compound 287, N-[5-chloro-3-(1-{5-[4-({1-[4-(2,4-dioxo-1,3-diazinan-1-yl)phenyl]piperidin-4-yl}methyl)piperazin-1-yl]pyridin-2-yl}-3-(pyridin-4-yl)-1H-pyrazol-4-yl)-2-fluorophenyl]pyrrolidine-1-sulfonamide] |  |  |  |  |  |  |  |  | 10 to 50 nM | 30 to 70% | < 10 nM | > 70% | < 10 nM | 30 to 70% | < 10 nM | 30 to 70%
